We go through five substances from article PMC9866706 (Toxins, 2022).

One assay deals with T1, rα3β4 nAChR (Rattus norvegicus, UniProt P04757+P12392).
T1 construct: expressed in transfected cells; host or cells: Xenopus laevis oocytes injected with cRNA
In words: ACh-evoked currents in Xenopus oocytes (TEVC), rα3β4. In kind it is cell-based.

The next assay deals with T2, hα7 nAChR (Homo sapiens, UniProt P36544).
T2 construct: expressed in transfected cells; host or cells: Xenopus laevis oocytes injected with cRNA
The assay is described as follows: ACh-evoked currents in Xenopus oocytes (TEVC), hα7. The class given is cell-based.

The target in a further assay is T3, rα9α10 nAChR (Rattus norvegicus, UniProt P43144+Q9JLB5).
T3 construct: expressed in transfected cells; host or cells: Xenopus laevis oocytes injected with cRNA
In words: ACh-evoked currents in Xenopus oocytes (TEVC), rα9α10. The class given is cell-based.

In a further assay the target is T4, rα4β2 nAChR (Rattus norvegicus, UniProt P09483+P12390).
T4 construct: expressed in transfected cells; host or cells: Xenopus laevis oocytes injected with cRNA
The assay is described as follows: ACh-evoked currents in Xenopus oocytes (TEVC), rα4β2. The class given is cell-based.

The target of the next assay is T5, rα2β4 nAChR (Rattus norvegicus, UniProt P12389+P12392).
T5 construct: expressed in transfected cells; host or cells: Xenopus laevis oocytes injected with cRNA
The assay is described as follows: ACh-evoked currents in Xenopus oocytes (TEVC), rα2β4. The class given is cell-based.

The next assay addresses T6, rα6/α3β4 nAChR (Rattus norvegicus, UniProt P04757+P12392+P43143).
T6 construct: expressed in transfected cells; host or cells: Xenopus laevis oocytes injected with cRNA
The assay is described as follows: ACh-evoked currents in Xenopus oocytes (TEVC), rα6/α3β4. In kind it is cell-based.

A further assay concerns the target T7, mα1β1δε nAChR (Mus musculus, UniProt P02716+P04756+P09690+P20782).
T7 construct: expressed in transfected cells; host or cells: Xenopus laevis oocytes injected with cRNA
In words: ACh-evoked currents in Xenopus oocytes (TEVC), mα1β1δε. The class given is cell-based.

For a further assay, the target named is T8, rα3β2 nAChR (Rattus norvegicus, UniProt P04757+P12390).
T8 construct: expressed in transfected cells; host or cells: Xenopus laevis oocytes injected with cRNA
The assay is described as follows: ACh-evoked currents in Xenopus oocytes (TEVC), rα3β2. The class given is cell-based.

The next assay deals with T9, rα4β4 nAChR (Rattus norvegicus, UniProt P09483+P12392).
T9 construct: expressed in transfected cells; host or cells: Xenopus laevis oocytes injected with cRNA
The assay is described as follows: ACh-evoked currents in Xenopus oocytes (TEVC), rα4β4. In kind it is cell-based.

A further assay addresses T10, rα2β2 nAChR (Rattus norvegicus, UniProt P12389+P12390).
T10 construct: expressed in transfected cells; host or cells: Xenopus laevis oocytes injected with cRNA
The assay is described as follows: ACh-evoked currents in Xenopus oocytes (TEVC), rα2β2. The class given is cell-based.

In a further assay the target is T11, rα7 nAChR (Rattus norvegicus, UniProt Q05941).
T11 construct: expressed in transfected cells; host or cells: Xenopus laevis oocytes injected with cRNA
In words: ACh-evoked currents in Xenopus oocytes (TEVC), rα7. In kind it is cell-based.

For the next assay, the system named is TRPC1. Set-up: method as in doi.org/10.1016/j.toxicon.2006.09.030. Conditions: ref doi.org/10.1016/j.toxicon.2006.09.030; cited from earlier work.
The subject of assay [1] is neuronal tetrodotoxin-sensitive voltage-gated sodium channel of adult rat dorsal root ganglion neurons. Conditions: cited from earlier work.
Assay [2] relates to tetrodotoxin-resistant voltage-gated sodium channel. The conditions noted are these: cited from earlier work.
The test system of a further assay is Nav1.8. Set-up: method as in earlier work. Conditions: ref doi.org/10.1016/j.cub.2014.01.013; doi.org/10.1016/j.toxicon.2006.09.014; cited from earlier work.
A further assay concerns Nav1.5. Also noted: method as in earlier work. Conditions: ref doi.org/10.1016/j.cub.2014.01.013; doi.org/10.1016/j.toxicon.2006.09.014; cited from earlier work.
In a further assay the test system is Nav1.2. Set-up: method as in earlier work. Conditions: ref doi.org/10.1016/j.cub.2014.01.013; doi.org/10.1016/j.toxicon.2006.09.014; cited from earlier work.
Another assay relates to Nav1.7. Also noted: method as in earlier work. Conditions: ref doi.org/10.1016/j.cub.2014.01.013; doi.org/10.1016/j.toxicon.2006.09.014; cited from earlier work.
A further assay relates to TRPA1. Set-up: method as in earlier work. The conditions noted are these: ref doi.org/10.1016/j.cub.2014.01.013; doi.org/10.1016/j.toxicon.2006.09.014; cited from earlier work.
The next assay has as its system KVAP. Also noted: method as in doi.org/10.1038/nature01473. The conditions noted are these: ref doi.org/10.1038/nature01473; cited from earlier work.

“Also recorded” adds a separate entry of the source. Bridges are numbered along the chain shown (N, C = ends). Where no end group is shown, it is not given here.

T11 sequence (Q05941 23-502): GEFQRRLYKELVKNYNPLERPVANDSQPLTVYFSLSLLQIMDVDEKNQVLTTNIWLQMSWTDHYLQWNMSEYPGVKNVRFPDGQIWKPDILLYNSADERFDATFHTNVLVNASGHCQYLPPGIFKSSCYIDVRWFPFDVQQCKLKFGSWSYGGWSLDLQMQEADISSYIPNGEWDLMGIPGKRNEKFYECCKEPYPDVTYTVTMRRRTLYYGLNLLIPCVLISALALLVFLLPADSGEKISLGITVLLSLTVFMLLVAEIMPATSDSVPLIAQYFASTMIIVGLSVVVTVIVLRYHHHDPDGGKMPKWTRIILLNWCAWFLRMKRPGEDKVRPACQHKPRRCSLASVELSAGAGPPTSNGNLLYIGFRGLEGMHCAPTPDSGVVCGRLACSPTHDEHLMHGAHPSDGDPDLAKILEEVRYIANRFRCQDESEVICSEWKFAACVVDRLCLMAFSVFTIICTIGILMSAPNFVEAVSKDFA
T3 sequence (Q9JLB5 25-447): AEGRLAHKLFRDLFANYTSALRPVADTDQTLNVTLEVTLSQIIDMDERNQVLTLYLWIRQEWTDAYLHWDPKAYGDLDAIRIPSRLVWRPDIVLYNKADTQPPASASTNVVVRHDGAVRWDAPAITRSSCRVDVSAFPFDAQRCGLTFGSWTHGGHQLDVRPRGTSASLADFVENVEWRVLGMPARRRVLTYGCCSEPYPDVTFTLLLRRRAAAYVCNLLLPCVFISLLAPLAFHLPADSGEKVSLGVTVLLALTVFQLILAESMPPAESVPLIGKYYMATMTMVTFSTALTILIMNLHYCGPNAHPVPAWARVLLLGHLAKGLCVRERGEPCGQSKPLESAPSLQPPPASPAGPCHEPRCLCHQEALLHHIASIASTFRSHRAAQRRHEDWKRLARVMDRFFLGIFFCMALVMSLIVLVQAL
T3 sequence (P43144 26-479): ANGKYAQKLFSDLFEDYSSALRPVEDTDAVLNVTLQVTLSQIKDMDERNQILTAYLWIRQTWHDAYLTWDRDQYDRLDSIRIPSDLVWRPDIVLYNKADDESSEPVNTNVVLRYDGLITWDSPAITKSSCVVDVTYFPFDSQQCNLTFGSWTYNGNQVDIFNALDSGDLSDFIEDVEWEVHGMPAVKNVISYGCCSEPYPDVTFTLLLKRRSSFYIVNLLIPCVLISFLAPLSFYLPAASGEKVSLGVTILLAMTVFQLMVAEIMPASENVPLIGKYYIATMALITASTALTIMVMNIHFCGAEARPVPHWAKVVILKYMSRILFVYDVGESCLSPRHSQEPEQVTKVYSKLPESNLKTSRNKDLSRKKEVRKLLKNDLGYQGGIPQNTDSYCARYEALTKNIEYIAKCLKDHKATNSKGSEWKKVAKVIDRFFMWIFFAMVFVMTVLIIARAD
T2 sequence (P36544 23-502): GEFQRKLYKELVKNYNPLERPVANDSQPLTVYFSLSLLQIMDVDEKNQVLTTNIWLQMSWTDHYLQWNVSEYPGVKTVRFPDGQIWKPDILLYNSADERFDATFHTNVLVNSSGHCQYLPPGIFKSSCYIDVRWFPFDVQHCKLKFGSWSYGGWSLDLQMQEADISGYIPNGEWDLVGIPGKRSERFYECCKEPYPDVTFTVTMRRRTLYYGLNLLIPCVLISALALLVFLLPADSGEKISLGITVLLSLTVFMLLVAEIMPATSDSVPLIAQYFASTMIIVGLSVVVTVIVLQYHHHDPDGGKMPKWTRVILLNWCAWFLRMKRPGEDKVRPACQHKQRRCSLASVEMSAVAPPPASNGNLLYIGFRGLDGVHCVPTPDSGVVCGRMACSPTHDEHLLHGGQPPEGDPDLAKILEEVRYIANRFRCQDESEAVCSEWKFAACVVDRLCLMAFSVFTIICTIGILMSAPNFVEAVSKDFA
T7 sequence (P20782 21-493): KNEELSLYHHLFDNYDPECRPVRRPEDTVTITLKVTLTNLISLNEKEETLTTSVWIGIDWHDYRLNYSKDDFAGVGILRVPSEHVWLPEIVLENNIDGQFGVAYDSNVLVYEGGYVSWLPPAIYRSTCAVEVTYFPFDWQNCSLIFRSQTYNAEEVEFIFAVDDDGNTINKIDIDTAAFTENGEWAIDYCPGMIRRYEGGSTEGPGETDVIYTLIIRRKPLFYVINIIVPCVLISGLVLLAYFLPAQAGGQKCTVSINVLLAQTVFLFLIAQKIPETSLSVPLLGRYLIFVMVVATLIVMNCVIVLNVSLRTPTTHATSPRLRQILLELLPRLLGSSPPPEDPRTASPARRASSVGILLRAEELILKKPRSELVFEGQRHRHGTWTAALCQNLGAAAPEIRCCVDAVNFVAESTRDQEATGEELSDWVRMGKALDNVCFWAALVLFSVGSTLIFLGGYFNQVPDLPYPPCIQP
T7 sequence (P04756 21-457): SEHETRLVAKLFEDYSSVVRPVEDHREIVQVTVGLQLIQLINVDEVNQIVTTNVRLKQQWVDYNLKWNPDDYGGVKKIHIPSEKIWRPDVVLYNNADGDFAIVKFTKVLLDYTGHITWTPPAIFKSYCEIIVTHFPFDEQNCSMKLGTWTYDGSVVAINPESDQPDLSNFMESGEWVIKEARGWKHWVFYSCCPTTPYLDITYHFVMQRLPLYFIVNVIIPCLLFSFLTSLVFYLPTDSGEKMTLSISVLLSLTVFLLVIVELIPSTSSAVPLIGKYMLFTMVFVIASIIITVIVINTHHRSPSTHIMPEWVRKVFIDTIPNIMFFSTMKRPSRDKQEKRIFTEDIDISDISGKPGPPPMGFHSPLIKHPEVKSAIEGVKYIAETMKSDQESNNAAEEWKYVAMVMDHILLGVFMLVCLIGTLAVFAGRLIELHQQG
T7 sequence (P09690 24-501): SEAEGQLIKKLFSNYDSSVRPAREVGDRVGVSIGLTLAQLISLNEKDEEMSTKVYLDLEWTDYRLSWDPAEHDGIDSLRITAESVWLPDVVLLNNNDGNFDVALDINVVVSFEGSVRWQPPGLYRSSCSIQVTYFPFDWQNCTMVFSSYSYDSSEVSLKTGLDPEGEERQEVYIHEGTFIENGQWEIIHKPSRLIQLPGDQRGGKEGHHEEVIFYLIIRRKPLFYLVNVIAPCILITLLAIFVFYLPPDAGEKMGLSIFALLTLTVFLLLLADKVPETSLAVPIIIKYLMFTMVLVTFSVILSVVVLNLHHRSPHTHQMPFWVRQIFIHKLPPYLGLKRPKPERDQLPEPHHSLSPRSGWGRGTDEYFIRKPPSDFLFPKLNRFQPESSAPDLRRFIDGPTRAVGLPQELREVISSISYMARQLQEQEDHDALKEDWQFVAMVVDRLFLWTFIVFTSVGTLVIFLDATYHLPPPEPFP
T7 sequence (P02716 25-520): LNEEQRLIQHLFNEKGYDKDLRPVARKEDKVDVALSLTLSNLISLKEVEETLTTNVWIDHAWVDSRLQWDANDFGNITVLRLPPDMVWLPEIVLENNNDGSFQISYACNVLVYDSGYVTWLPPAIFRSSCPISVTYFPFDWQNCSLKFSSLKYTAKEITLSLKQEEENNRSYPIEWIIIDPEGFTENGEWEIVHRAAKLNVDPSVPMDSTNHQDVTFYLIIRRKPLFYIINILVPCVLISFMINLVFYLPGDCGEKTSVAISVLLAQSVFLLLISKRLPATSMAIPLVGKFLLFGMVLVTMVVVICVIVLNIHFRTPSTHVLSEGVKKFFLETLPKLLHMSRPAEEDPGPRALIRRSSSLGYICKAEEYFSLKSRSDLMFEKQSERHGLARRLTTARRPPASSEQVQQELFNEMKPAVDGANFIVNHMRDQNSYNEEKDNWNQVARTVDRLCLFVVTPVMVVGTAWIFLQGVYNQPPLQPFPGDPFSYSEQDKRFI
T1 sequence (P04757 26-499): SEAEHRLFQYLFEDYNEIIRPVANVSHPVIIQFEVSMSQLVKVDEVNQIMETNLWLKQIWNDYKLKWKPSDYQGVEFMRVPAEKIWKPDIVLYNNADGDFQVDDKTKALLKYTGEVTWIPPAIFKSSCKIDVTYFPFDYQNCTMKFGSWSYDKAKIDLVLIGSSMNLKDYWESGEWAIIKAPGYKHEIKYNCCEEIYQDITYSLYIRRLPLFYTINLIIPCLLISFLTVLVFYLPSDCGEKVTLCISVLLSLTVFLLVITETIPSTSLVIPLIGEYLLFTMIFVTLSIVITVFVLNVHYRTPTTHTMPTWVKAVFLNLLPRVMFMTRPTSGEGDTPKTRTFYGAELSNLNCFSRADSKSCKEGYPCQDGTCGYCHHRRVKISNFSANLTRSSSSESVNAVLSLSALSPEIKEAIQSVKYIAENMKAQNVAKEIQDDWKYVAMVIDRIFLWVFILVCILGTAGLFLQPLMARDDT
T1 sequence (P12392 21-495): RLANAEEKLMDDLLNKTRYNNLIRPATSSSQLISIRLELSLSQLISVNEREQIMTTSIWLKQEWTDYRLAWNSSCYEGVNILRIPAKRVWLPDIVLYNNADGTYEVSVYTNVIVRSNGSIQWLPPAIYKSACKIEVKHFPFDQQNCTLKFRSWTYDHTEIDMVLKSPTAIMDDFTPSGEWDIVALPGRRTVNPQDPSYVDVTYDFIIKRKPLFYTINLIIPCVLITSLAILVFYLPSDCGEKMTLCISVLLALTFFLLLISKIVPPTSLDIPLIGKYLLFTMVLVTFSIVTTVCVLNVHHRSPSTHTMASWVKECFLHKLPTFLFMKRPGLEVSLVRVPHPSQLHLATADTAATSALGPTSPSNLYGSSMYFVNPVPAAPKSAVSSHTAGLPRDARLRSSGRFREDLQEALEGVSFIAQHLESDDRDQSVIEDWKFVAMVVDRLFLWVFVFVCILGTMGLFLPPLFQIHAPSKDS

In the case of “GCKKLNSYCTRQHRECCHGLVCRRPDYGIGRGILWKCTRARK (disulfide 2-17, 9-22, 16-37) [Ms11a-3]”, the IC50 (in general, the point on the concentration scale where inhibition reaches its midpoint) at rα3β4 nAChR is 5.17 µM; against hα7 nAChR, 8.87 µM; against rα9α10 nAChR, 0.202 µM; on rα4β2 nAChR it was over 10 µM; at rα2β4 nAChR, over 10 µM; on rα6/α3β4 nAChR, over 10 µM. For the same substance, the IC50 on mα1β1δε nAChR was 1.21 µM; on rα3β2 nAChR, over 10 µM; against rα4β4 nAChR it was over 10 µM; against rα2β2 nAChR it was over 10 µM; on rα7 nAChR it was 4.79 µM. The “Hill Slope” value was 0.84 (0.67–1.00) on rα3β4 nAChR (mean (95% confidence interval)); 0.95 (0.30–1.61) on hα7 nAChR (mean (95% confidence interval)); 0.71 (0.52–0.90) at rα9α10 nAChR (mean (95% confidence interval)); 1.35 (0.71–1.99) at mα1β1δε nAChR (mean (95% confidence interval)); 0.99 (0.59–1.40) at rα7 nAChR (mean (95% confidence interval)). Also, on rα9α10 nAChR (compared to the muscle and α7 receptors), the “functional antagonism” value was “highest antagonism; also recorded: effectively blocking the neuronal α9α10 and to a lesser extent muscle nAChR subtypes”. The “functional potency” value at rα7 nAChR (towards α7 and heteromeric nAChRs) is recorded as “lowest potency”.

As to GsMTx-4, the “Target (that was in the corresponding Ref.)” value (“Target” below) in the assay on TRPC1 was “TRPC1”.

For “HWTX-IV: Haplopelma schmidti toxin, PDB 1MB6”, the IC50 in assay [1] is 0.03 µM. Besides, the “No (or weak) effect” value in [2] was “No (or weak) effect”.

In the case of ProTx-I, the “Target” value in the assay with Nav1.8 is given as “Nav1.8”; in the assay with Nav1.5 it was “Nav1.5”; in the assay with Nav1.2 it was “Nav1.2”; in the assay with Nav1.7, “Nav1.7”. For the same substance, the IC50 in the assay on TRPA1 is 0.389 ± 0.077 µM.

For the substance “VSTx1: Grammostola rosea toxin, PDB 2N1N (ECGKFMWKCKNSNDCCKDLVCSSRWKWCVLASPF; UniProt P60980 30-63, looked up)”, the “Target” value with KVAP is “KVAP”.
